Patent publication US12617795B2, “Substituted 6,7-dihydro-5H-pyrrolo[3,4-d]pyrimidines, 5,7-dihydrofuro[3,4-d]pyrimidines, and pyrido[2,3-d]pyrimidines as KCC2 modulators” (Astrazeneca AB, priority 2020, dated 2026)

biological target: T1, KCC2 (Homo sapiens, UniProt Q9H2X9); assay: KCC2 thallium transport FLIPR-based assay (Tl+ influx in HEK293 cells expressing KCC2); type: cell-based; conditions: 90 min compound incubation at RT, thallium flux at 120 s used to determine EC50
T1 construct: expressed in transfected cells; host or cells: HEK293 cells electroporated (Maxcyte STX) with the pcDNA3.1 KCC2 plasmid
T1 sequence (Q9H2X9 1-1139): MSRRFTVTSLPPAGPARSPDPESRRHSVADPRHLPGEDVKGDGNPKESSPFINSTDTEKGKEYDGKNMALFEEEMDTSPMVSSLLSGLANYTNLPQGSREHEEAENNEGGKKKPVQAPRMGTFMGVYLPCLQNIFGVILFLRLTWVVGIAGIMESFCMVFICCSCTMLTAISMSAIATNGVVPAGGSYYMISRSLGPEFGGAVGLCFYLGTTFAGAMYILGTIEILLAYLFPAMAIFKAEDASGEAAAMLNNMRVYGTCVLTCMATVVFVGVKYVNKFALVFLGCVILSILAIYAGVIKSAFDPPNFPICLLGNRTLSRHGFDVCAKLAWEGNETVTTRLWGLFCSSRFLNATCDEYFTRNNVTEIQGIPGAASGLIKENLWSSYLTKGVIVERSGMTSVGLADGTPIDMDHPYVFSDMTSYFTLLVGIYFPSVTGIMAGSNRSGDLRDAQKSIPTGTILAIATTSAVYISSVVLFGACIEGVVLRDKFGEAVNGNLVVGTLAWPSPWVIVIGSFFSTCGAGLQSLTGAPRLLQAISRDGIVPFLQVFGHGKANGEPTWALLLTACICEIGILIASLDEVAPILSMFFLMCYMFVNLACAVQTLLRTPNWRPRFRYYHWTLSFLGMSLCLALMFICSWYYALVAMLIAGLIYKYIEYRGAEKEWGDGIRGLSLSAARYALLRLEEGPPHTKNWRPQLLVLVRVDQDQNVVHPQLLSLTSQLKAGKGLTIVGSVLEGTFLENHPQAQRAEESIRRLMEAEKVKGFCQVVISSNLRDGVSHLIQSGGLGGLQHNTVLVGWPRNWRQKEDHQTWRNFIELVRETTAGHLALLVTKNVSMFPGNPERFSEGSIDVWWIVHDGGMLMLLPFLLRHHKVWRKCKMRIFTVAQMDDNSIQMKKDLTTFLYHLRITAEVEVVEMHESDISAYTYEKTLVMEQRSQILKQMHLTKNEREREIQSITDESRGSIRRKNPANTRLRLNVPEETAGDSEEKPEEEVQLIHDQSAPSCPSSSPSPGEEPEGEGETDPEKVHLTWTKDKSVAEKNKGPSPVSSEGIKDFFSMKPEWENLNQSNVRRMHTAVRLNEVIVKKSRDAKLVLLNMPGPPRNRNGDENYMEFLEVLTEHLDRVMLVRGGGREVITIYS
Experimental: A thallium transport FLIPR-based assay was used to measure the ability of compounds to activate KCC2. KCC2 activity is assessed by measuring KCC2-dependent Tl^+ influx in a KCC2-expressing cell. The assay protocol was based on those described by Delpire et al (Proc Natl Acad Sci USA. 2009 Mar. 31; 106(13): 5383-5388) and Zhang et al (Journal of Biomolecular Screening 15(2): 2010).
KCC2 was synthesised and codon optimised by GeneArt based on the Uniprot sequence Q9H2X9. The final sequence was subcloned into pcDNA3.1.
HEK293 cells were grown in 10 layer cell stacks at 37° C., 5% CO2, in DMEM, 10% fetal calf serum and 2 mM Glutamine. The cells were detached by removing the media and washing the cell stack with 100 ml of PBS. The PBS was removed and 100 ml of 1× TrypLE was added and the cell stack returned to 37° C. for 5 min. The detached cells were then counted in a Vi Cell counter and spun for 10 min at 1250 rpm in a Sorval Legend centrifuge. The cells were diluted down in Maxcyte electroporation buffer at 4× the final concentration and spun as before. The cell pellet was resuspended at 1×10^8/cells per ml and electroporated in a Maxcyte Cl 2.2 bag on a Maxcyte STX machine via the HEK293 programme with 200 ug/ml of plasmid DNA. The cells were then allowed to recover for 30 min before adding to 500 ml of PBS and then counted again on the Vi Cell. The cells were then frozen down in planer controlled rate freeze in 90% complete media, 10% DMSO.
All reagents were dispensed using a Mulitdrop Combi unless stated otherwise. All FluXOR Invitrogen propriety buffer compositions are mentioned in tables below.
HEK293 KCC2 cells were harvested at a density of 3.33×10^5 cells/mL in complete media (DMEM, Sigma, D6546, 10% fetal calf serum and 1% Glutamax) and 30 μL per well seeded into 384-well PDL coated black-clear plates (Corning, 354663). Leave cells at RT for 20 mins to settle before incubating for 48 h at 37° C., 5% CO2. Following incubation, perform three wash steps in HBSS (Sigma, H6648) using a Biotek cell washer with the final aspiration leaving 20 μL HBSS residual volume in each well. A further 20 μL per well of thallium loading dye is then added (1 h, RT, protect from light). 5 μL of test compounds (100 μM top concentration, 1:2 dilutions, 12 point curve) were added using the FLIPR TETRA and incubated at RT for 90 min in the dark. Following compound incubation, the thallium flux response is read on FLIPR TETRA (ex. 515-575 nm) which is initiated by FLIRR TETRA dispensing 5 μL stimulus buffer into each well. Recordings are measured every 1 second for 120 seconds. Thallium flux at 120 s used to determine EC50.
Compound buffer: Assay buffer with 1 μL of bumetanide per 10 ml.

**Q.** Which EC50 does the source give for `CC(C)N1Cc2c(Nc3ccc(C4CCCCC4)cc3)nc(N3CCOC(C4CC4)C3)nc2C1=O` (single isomer, unassigned) [Example 14, 4-[(4-cyclohexylphenyl)amino]-2-(2-cyclopropylmorpholin-4-yl)-6-(propan-2-yl)-5,6-dihydro-7H-pyrrolo[3,4-d]pyrimidin-7-one] here?
**A.** 707 nM

**Q.** `CC(C)N1Cc2c(Nc3ccc(C4CCCCC4)cc3)nc(N3CCOC(C4CC4)C3)nc2C1=O` (single isomer, unassigned) [Example 15, 4-[(4-cyclohexylphenyl)amino]-2-(2-cyclopropylmorpholin-4-yl)-6-(propan-2-yl)-5,6-dihydro-7H-pyrrolo[3,4-d]pyrimidin-7-one] was tested. Which EC50 did it give?
**A.** 769 nM

**Q.** `CCN(CC)c1nc(Nc2ccc(C(C)C)cc2)c2c(n1)C(=O)N(C(C)C)C2` [Example 1, 2-(Diethylamino)-6-isopropyl-4-((4-isopropylphenyl)amino)-5,6-dihydro-7H-pyrrolo[3,4-d]pyrimidin-7-one] was tested. Which EC50 did it give?
**A.** 1710 nM

**Q.** `CC(C)N1Cc2c(Nc3ccc(C4CCCCC4)cc3)nc(N3CCOC(C4CC4)C3)nc2C1=O` (centres unmarked) [Example 2, 4-((4-cyclohexylphenyl)amino)-2-(2-cyclopropylmorpholino)-6-isopropyl-5,6-dihydro-7H-pyrrolo[3,4-d]pyrimidin-7-one] was tested. Which EC50 did it give?
**A.** 672 nM

**Q.** `CC(C)c1ccc(Nc2nc(N3CCSC3)nc3c2CN(C(C)C)C3=O)cc1` [Example 3, 6-(propan-2-yl)-4-{[4-(propan-2-yl)phenyl]amino}-2-(1,3-thiazolidin-3-yl)-5,6-dihydro-7H-pyrrolo[3,4-d]pyrimidin-7-one] was tested. Which EC50 did it give?
**A.** 3000 nM

**Q.** For `CC(C)c1ccc(Nc2nc(N3C[C@@H](C)O[C@@H](C)C3)nc3c2CN(C(C)C)C3=O)cc1` [Example 4, 2-[(2R,6S)-2,6-dimethylmorpholin-4-yl]-6-(propan-2-yl)-4-{[4-(propan-2-yl)phenyl]amino}-5,6-dihydro-7H-pyrrolo[3,4-d]pyrimidin-7-one], which EC50 is on record?
**A.** 3760 nM

**Q.** For `CC(C)c1ccc(Nc2nc(N3CCSCC3)nc3c2CN(C(C)C)C3=O)cc1` [Example 5, 6-(propan-2-yl)-4-{[4-(propan-2-yl)phenyl]amino}-2-(thiomorpholin-4-yl)-5,6-dihydro-7H-pyrrolo[3,4-d]pyrimidin-7-one], which EC50 is on record?
**A.** 3770 nM

**Q.** How did the EC50 turn out when `CC(C)c1ccc(Nc2nc(N3CCO[C@@H](C)C3)nc3c2CN(C(C)C)C3=O)cc1` [Example 6, 2-[(2S)-2-methylmorpholin-4-yl]-6-(propan-2-yl)-4-{[4-(propan-2-yl)phenyl]amino}-5,6-dihydro-7H-pyrrolo[3,4-d]pyrimidin-7-one] was run?
**A.** 6820 nM

**Q.** Which EC50 does the source give for `CC(C)c1ccc(Nc2nc(N3CCO[C@H](C)C3)nc3c2CN(C(C)C)C3=O)cc1` [Example 7, 2-[(2R)-2-methylmorpholin-4-yl]-6-(propan-2-yl)-4-{[4-(propan-2-yl)phenyl]amino}-5,6-dihydro-7H-pyrrolo[3,4-d]pyrimidin-7-one] here?
**A.** 4500 nM

**Q.** `CC(C)c1ccc(Nc2nc(N3C[C@H](C)O[C@@H](C)C3)nc3c2CN(C(C)C)C3=O)cc1` [Example 8, 2-[(2S,6S)-2,6-dimethylmorpholin-4-yl]-6-(propan-2-yl)-4-{[4-(propan-2-yl)phenyl]amino}-5,6-dihydro-7H-pyrrolo[3,4-d]pyrimidin-7-one] was tested. Which EC50 did it give?
**A.** 5430 nM

**Q.** With `CC(C)c1ccc(Nc2nc(N3CCOCC3C)nc3c2CN(C(C)C)C3=O)cc1` (centres unmarked) [Example 9, 2-(3-methylmorpholin-4-yl)-6-(propan-2-yl)-4-{[4-(propan-2-yl)phenyl]amino}-5,6-dihydro-7H-pyrrolo[3,4-d]pyrimidin-7-one] as the compound, how does the EC50 read?
**A.** 6140 nM

**Q.** `CC(C)c1ccc(Nc2nc(N3CCOC(C4CC4)C3)nc3c2CN(C(C)C)C3=O)cc1` (centres unmarked) [Example 10, 2-(2-cyclopropylmorpholin-4-yl)-6-(propan-2-yl)-4-{[4-(propan-2-yl)phenyl]amino}-5,6-dihydro-7H-pyrrolo[3,4-d]pyrimidin-7-one] was tested. Which EC50 did it give?
**A.** 2990 nM

**Q.** Which EC50 does the source give for `CC(C)N1Cc2c(Nc3ccc(C4CCCCC4)cc3)nc(N3CCOCC3)nc2C1=O` [Example 11, 4-[(4-cyclohexylphenyl)amino]-2-(morpholin-4-yl)-6-(propan-2-yl)-5,6-dihydro-7H-pyrrolo[3,4-d]pyrimidin-7-one] here?
**A.** 2010 nM

**Q.** Which EC50 does the source give for `CC1CN(c2nc(Nc3ccc(C4CCCCC4)cc3)c3c(n2)C(=O)N(C(C)C)C3)CCO1` (centres unmarked) [Example 12, 4-[(4-cyclohexylphenyl)amino]-2-(2-methylmorpholin-4-yl)-6-(propan-2-yl)-5,6-dihydro-7H-pyrrolo[3,4-d]pyrimidin-7-one] here?
**A.** 1350 nM

**Q.** How did the EC50 turn out when `CC(C)N1Cc2c(Nc3ccc(C4CCCCC4)cc3)nc(N3CCO[C@H](C)C3)nc2C1=O` [Example 13, 4-[(4-cyclohexylphenyl)amino]-2-[(2R)-2-methylmorpholin-4-yl]-6-(propan-2-yl)-5,6-dihydro-7H-pyrrolo[3,4-d]pyrimidin-7-one] was run?
**A.** 1710 nM

**Q.** How did the EC50 turn out when `CC(C)N1Cc2c(Nc3ccc(C4CCCCC4)cc3)nc(N3CCOC(CC(F)(F)F)C3)nc2C1=O` (centres unmarked) [Example 16, 4-[(4-cyclohexylphenyl)amino]-6-(propan-2-yl)-2-[2-(2,2,2-trifluoroethyl)morpholin-4-yl]-5,6-dihydro-7H-pyrrolo[3,4-d]pyrimidin-7-one] was run?
**A.** 749 nM

**Q.** Which EC50 does the source give for `CC(C)N1Cc2c(Nc3ccc(C4CCCCC4)cc3)nc(N3CCO[C@H](CNC(=O)OC(C)(C)C)C3)nc2C1=O` [Example 17, tert-butyl {[(2R)-4-{4-[(4-cyclohexylphenyl)amino]-7-oxo-6-(propan-2-yl)-6,7-dihydro-5H-pyrrolo[3,4-d]pyrimidin-2-yl}morpholin-2-yl]methyl}carbamate] here?
**A.** 1090 nM

**Q.** For `CC(C)C1CN(c2nc(Nc3ccc(C4CCCCC4)cc3)c3c(n2)C(=O)N(C(C)C)C3)CCO1` (centres unmarked) [Example 18, 4-[(4-cyclohexylphenyl)amino]-6-(propan-2-yl)-2-[2-(propan-2-yl)morpholin-4-yl]-5,6-dihydro-7H-pyrrolo[3,4-d]pyrimidin-7-one], which EC50 is on record?
**A.** 1390 nM

**Q.** `CC(C)N1Cc2c(Nc3ccc(C4CCCCC4)cc3)nc(N3CCSC3)nc2C1=O` [Example 19, 4-[(4-cyclohexylphenyl)amino]-6-(propan-2-yl)-2-(1,3-thiazolidin-3-yl)-5,6-dihydro-7H-pyrrolo[3,4-d]pyrimidin-7-one] was tested. Which EC50 did it give?
**A.** 2040 nM

**Q.** For `CCOCCN(C)c1nc(Nc2ccc(C3CCCCC3)cc2)c2c(n1)C(=O)N(C(C)C)C2` [Example 20, 4-[(4-cyclohexylphenyl)amino]-2-[(2-ethoxyethyl)(methyl)amino]-6-(propan-2-yl)-5,6-dihydro-7H-pyrrolo[3,4-d]pyrimidin-7-one], which EC50 is on record?
**A.** 2350 nM
